Data set [1] can be described thus: Log P by shake flask method. The format is physicochemical. The note with it: octanol / PBS pH = 7.4, shake flask. On the procedure: Log P is defined as the logarithm of octanol–water partition coefficient. […] Ultraviolet spectrophotometry was applied to determine the concentration of compounds. Log p values were calculated based on the data in triplicate.
For the next data set, the target named is BChE (Rattus norvegicus, UniProt Q9JKC1). In words: biochemical. Further details: species or system Sprague–Dawley rat. The following applies: rat serum BChE, Mean ± SD, triplicate.
Another data set has as its target AChE (Rattus norvegicus, UniProt P37136). In words: biochemical. The note with it: for Selectivity for AChE: IC50 (BChE)/IC50 (AChE); for IC50: rat brain AChE, Mean ± SD, triplicate.
Data set [2] is described as follows: pKa by pH-titration method. The format is physicochemical. The following applies: read-out: pKa. How it is done:
pKa is determined by pH-titration method according to the report. The titration curve E vs. VT was recorded and pKa value was calculated.

Some results are limits rather than exact numbers.

The values that follow come from paper PMC6010128, “Structure–activity relationship investigation of tertiary amine derivatives of cinnamic acid as acetylcholinesterase and butyrylcholinesterase inhibitors: compared with that of phenylpropionic acid, sorbic acid and hexanoic acid” (Journal of Enzyme Inhibition and Medicinal Chemistry, 2018).

Chain of AChE (P37136 32-614): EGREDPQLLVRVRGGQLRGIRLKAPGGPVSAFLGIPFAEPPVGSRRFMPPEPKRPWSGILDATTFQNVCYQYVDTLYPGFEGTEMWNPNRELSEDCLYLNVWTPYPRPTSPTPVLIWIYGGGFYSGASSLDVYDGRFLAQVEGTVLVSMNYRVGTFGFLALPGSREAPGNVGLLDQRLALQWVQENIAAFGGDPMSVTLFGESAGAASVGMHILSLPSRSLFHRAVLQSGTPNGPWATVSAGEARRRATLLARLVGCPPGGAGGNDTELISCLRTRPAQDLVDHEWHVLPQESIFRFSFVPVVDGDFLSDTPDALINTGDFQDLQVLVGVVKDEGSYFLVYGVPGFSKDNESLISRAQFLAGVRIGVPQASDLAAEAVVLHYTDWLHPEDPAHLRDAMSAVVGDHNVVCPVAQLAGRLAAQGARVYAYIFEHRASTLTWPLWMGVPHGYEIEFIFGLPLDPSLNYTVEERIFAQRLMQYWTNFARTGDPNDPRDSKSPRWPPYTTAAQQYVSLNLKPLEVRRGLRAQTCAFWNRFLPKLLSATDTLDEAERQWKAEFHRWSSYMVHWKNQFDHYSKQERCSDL
Chain of BChE (Q9JKC1 24-597): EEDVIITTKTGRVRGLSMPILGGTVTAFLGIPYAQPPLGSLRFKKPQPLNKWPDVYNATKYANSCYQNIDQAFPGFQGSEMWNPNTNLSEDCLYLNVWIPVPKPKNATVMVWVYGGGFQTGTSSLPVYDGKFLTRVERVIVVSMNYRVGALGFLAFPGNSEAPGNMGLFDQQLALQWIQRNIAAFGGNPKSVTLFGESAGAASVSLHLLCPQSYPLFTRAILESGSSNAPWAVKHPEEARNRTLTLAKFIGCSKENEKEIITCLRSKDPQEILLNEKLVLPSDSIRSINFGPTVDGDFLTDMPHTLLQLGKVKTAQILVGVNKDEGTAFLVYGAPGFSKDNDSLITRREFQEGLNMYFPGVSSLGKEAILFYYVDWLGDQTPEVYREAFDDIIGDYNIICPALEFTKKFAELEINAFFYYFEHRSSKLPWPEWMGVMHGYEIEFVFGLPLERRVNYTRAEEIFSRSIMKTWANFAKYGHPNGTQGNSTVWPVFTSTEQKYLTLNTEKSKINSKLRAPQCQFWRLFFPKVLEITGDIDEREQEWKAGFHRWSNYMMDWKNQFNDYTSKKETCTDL

One may read the logP as a log measure of how a compound divides between an organic and an aqueous phase. Low values mean lower lipophilicity, high ones higher lipophilicity. As usually defined, the IC50 is the concentration needed to halve the response being measured. In general, pKa refers to the pH at which an ionisable group is half protonated. In data set [1], `CN(C)CCOc1ccccc1NC(=O)C=Cc1ccccc1` [Compound 4d] displayed a lipophilicity (logP) of 2.78. Moreover, the 50% inhibitory concentration (IC50) at BChE was found to be 11.2 ± 0.34 µM. At AChE, the “Selectivity for AChE” value is on record as 0.07 and inhibition was half-maximal at 161 ± 2.19 µM (IC50). Besides, the pKa in data set [2] was 6.96.
For `CCN(CC)CCOc1ccccc1NC(=O)C=Cc1ccccc1` [Compound 4e] the same measures were 2.81, 6.99 ± 0.29 µM, 0.04, 197 ± 6.81 µM and 7.28.
For `O=C(C=Cc1ccccc1)Nc1ccccc1OCCN1CCCCC1` [Compound 4f] the same measures were 2.17, 1.16 ± 0.22 µM, 0.01, 141 ± 7.01 µM and 6.85.
For `O=C(C=Cc1ccccc1)Nc1ccccc1OCCN1CCCC1` [Compound 4g] the same measures were 2.19, 1.56 ± 0.42 µM, 0.01, 170 ± 8.49 µM and 7.33.
On to `CN(C)CCOc1cccc(NC(=O)C=Cc2ccccc2)c1` [Compound 5d], for which the logP in data set [1] came to 0.96. Also, the midpoint of inhibition against BChE, the IC50, lay at 26.5 ± 0.56 µM. At AChE, the “Selectivity for AChE” value is recorded as 1.30 and the 50% inhibitory concentration (IC50) stood at 20.5 ± 3.13 µM. In addition, the pKa in data set [2] worked out at 6.51.
In data set [1], `CCN(CC)CCOc1cccc(NC(=O)C=Cc2ccccc2)c1` [Compound 5e] yielded a log partition coefficient (logP) of 2.56. Moreover, the half-inhibitory concentration (IC50) at BChE came out at 42.5 ± 0.67 µM. Moreover, at AChE, the “Selectivity for AChE” value turned out to be 0.86 and 49.4 ± 1.91 µM corresponded to half-maximal inhibition (IC50). In addition, the pKa in data set [2] came out at 7.16.
`O=C(C=Cc1ccccc1)Nc1cccc(OCCN2CCCCC2)c1` [Compound 5f] yielded a logP in data set [1] of 1.24. Moreover, the IC50 on BChE is 3.26 ± 0.26 µM. On AChE, the “Selectivity for AChE” value worked out at 0.16 and the IC50 came out at 20.5 ± 1.01 µM. Also, in data set [2], the pKa amounted to 6.99.
For `O=C(C=Cc1ccccc1)Nc1cccc(OCCN2CCCC2)c1` [Compound 5g] the same measures were 2.28, 12.9 ± 1.18 µM, 1.51, 8.52 ± 1.23 µM and 7.28.
In the case of `CN(C)CCOc1ccc(NC(=O)C=Cc2ccccc2)cc1` [Compound 6d], the logP in data set [1] is 1.54. This compound also gave an IC50 against BChE of 113 ± 1.36 µM. Besides, on AChE, the “Selectivity for AChE” value was found to be 22.8 and inhibition was half-maximal at 4.98 ± 0.31 µM (IC50). The pKa in data set [2] turned out to be 7.18.
Taken in the same sequence, the figures for `CCN(CC)CCOc1ccc(NC(=O)C=Cc2ccccc2)cc1` [Compound 6e] were 1.22, 44 ± 3.29 µM, 4.16, 10.6 ± 0.43 µM and 6.97.
`O=C(C=Cc1ccccc1)Nc1ccc(OCCN2CCCCC2)cc1` [Compound 6f] had a lipophilicity (logP) in data set [1] of 1.4. The results for the IC50 against BChE and against AChE were 94.5 ± 8.74 µM and 4.35 ± 0.36 µM, respectively. In data set [2], the pKa was found to be 7.29.
On to `CN(C)CCOc1ccccc1NC(=O)CCc1ccccc1` [Compound 10d], for which the logP in data set [1] is 2.14. The compound also had an IC50 against BChE of 36.6 ± 1.38 µM. Besides, on AChE, the “Selectivity for AChE” value came out at 0.13 and the IC50 worked out at 285 ± 4.69 µM. Further, the pKa in data set [2] turned out to be 7.19.
For `CCN(CC)CCOc1ccccc1NC(=O)CCc1ccccc1` [Compound 10e], the logP in data set [1] was found to be 3.22. The half-maximal inhibitory concentration (IC50) against BChE was 40.1 ± 1.29 µM; at AChE, more than 500 µM. For the same compound, in data set [2], the pKa worked out at 7.23.
For the compound `O=C(CCc1ccccc1)Nc1ccccc1OCCN1CCCCC1` [Compound 10f], the logP in data set [1] worked out at 1.18. Besides, the IC50 was 0.59 ± 0.09 µM at BChE and 250 ± 8.21 µM at AChE. Also, the “Selectivity for AChE” value on AChE is 0.002. The pKa in data set [2] amounted to 7.02.
Taken in the same sequence, the figures for `O=C(CCc1ccccc1)Nc1ccccc1OCCN1CCCC1` [Compound 10g] were 1.3, 1.87 ± 0.16 µM, 209 ± 2.33 µM, 0.01 and 6.88.
In turn, `CN(C)CCOc1cccc(NC(=O)CCc2ccccc2)c1` [Compound 11d] showed a log partition coefficient (logP) in data set [1] of 1.19. This compound gave a half-inhibitory concentration (IC50) on BChE of 15.5 ± 1.21 µM. On AChE, the “Selectivity for AChE” value was 0.26 and half-maximal inhibition (IC50) was put at 59.2 ± 3.34 µM. For the same compound, in data set [2], the pKa was determined as 6.45.
`CCN(CC)CCOc1cccc(NC(=O)CCc2ccccc2)c1` [Compound 11e]: the log partition coefficient (logP) in data set [1] worked out at 2.23. The IC50 was found to be 8.23 ± 0.59 µM against BChE and 102 ± 3.36 µM against AChE. The “Selectivity for AChE” value at AChE came to 0.08. The pKa in data set [2] is 6.51.
On to `O=C(CCc1ccccc1)Nc1cccc(OCCN2CCCCC2)c1` [Compound 11f], for which, in data set [1], the logP was 3.22. The results for the IC50 against BChE and on AChE were 64 ± 1.92 µM and 69 ± 2.64 µM, respectively. Further, on AChE, the “Selectivity for AChE” value came out at 0.93. For the same compound, in data set [2], the pKa was 6.78.
Compound `O=C(CCc1ccccc1)Nc1cccc(OCCN2CCCC2)c1` [Compound 11g] registered a logP in data set [1] of 2.58. In addition, the midpoint of inhibition at BChE, the IC50, lay at 84 ± 2.12 µM. For the same compound, on AChE, the “Selectivity for AChE” value worked out at 1.43 and the IC50 stood at 58.6 ± 3.85 µM. Besides, the pKa in data set [2] is 6.45.
Taken in the same sequence, the figures for `CN(C)CCOc1ccc(NC(=O)CCc2ccccc2)cc1` [Compound 12d] were 2.44, 132 ± 5.21 µM, 2.82, 46.8 ± 1.29 µM and 7.26.
In turn, `CCN(CC)CCOc1ccc(NC(=O)CCc2ccccc2)cc1` [Compound 12e] registered a logP in data set [1] of 2.58. The half-inhibitory concentration (IC50) against BChE worked out at 212 ± 4.87 µM. Besides, on AChE, the “Selectivity for AChE” value turned out to be 2.50 and 84.6 ± 6.1 µM corresponded to half-maximal inhibition (IC50). The pKa in data set [2] is 6.52.
For `O=C(CCc1ccccc1)Nc1ccc(OCCN2CCCCC2)cc1` [Compound 12f] the same measures were 1.82, 226 ± 5.78 µM, 6.60, 34.3 ± 0.89 µM and 7.13.
As to `O=C(CCc1ccccc1)Nc1ccc(OCCN2CCCC2)cc1` [Compound 12g], in data set [1], the logP was determined as 2.26. In addition, the half-inhibitory concentration (IC50) at BChE was found to be 98.5 ± 1.09 µM; at AChE, 24.4 ± 0.76 µM. Besides, the pKa in data set [2] turned out to be 6.8.
On to `C/C=C/C=C/C(=O)Nc1ccccc1OCCN(C)C` [Compound 16d], for which the log partition coefficient (logP) in data set [1] stood at 0.63. The compound also yielded an IC50 on BChE of 34.1 ± 1.85 µM. Moreover, on AChE, the “Selectivity for AChE” value stood at 1.11 and the IC50 stood at 30.7 ± 2.34 µM. Besides, in data set [2], the pKa turned out to be 7.25.
In data set [1], `C/C=C/C=C/C(=O)Nc1ccccc1OCCN(CC)CC` [Compound 16e] had a log partition coefficient (logP) of 2.18. The IC50 against BChE is 91.8 ± 1.45 µM; at AChE, more than 500 µM. For the same compound, the pKa in data set [2] was 7.53.
As to `C/C=C/C=C/C(=O)Nc1ccccc1OCCN1CCCCC1` [Compound 16f], the logP in data set [1] was determined as 0.67. Also, it took 27.7 ± 1.29 µM to reach half-maximal inhibition against BChE (IC50). On AChE, the “Selectivity for AChE” value came to 0.16 and the midpoint of inhibition, the IC50, lay at 170 ± 4.11 µM. Besides, in data set [2], the pKa is 6.86.
For `C/C=C/C=C/C(=O)Nc1ccccc1OCCN1CCCC1` [Compound 16g] the same measures were 0.97, 21.9 ± 0.99 µM, 0.08, 278 ± 4.58 µM and 7.32.
In the case of `C/C=C/C=C/C(=O)Nc1cccc(OCCN(C)C)c1` [Compound 17d], in data set [1], the logP is 0.99. The IC50 at BChE stood at 50.43 ± 0.46 µM; at AChE, 52.47 ± 0.39 µM. Further, the “Selectivity for AChE” value at AChE amounted to 0.96. Besides, the pKa in data set [2] worked out at 7.23.
Taken in the same sequence, the figures for `C/C=C/C=C/C(=O)Nc1cccc(OCCN(CC)CC)c1` [Compound 17e] were 1.72, 79.5 ± 1.43 µM, 98.7 ± 1.89 µM, 0.81 and 7.58.
Taken in the same sequence, the figures for `C/C=C/C=C/C(=O)Nc1cccc(OCCN2CCCCC2)c1` [Compound 17f] were 2.23, 33.6 ± 1.59 µM, 44.2 ± 1.36 µM, 0.76 and 7.17.
Taken in the same sequence, the figures for `C/C=C/C=C/C(=O)Nc1cccc(OCCN2CCCC2)c1` [Compound 17g] were 1.41, 28.5 ± 1.24 µM, 18.8 ± 0.63 µM, 1.51 and 7.06.
Compound `C/C=C/C=C/C(=O)Nc1ccc(OCCN(C)C)cc1` [Compound 18d] gave a logP in data set [1] of 1.79. The concentration for half-maximal inhibition (IC50) against BChE was determined as 222 ± 8.63 µM. Moreover, on AChE, the “Selectivity for AChE” value worked out at 17.5 and the IC50 was found to be 12.6 ± 0.89 µM. Moreover, in data set [2], the pKa was determined as 7.21.
Taken in the same sequence, the figures for `C/C=C/C=C/C(=O)Nc1ccc(OCCN(CC)CC)cc1` [Compound 18e] were 1.31, 94.5 ± 4.26 µM, 0.50, 189 ± 4.55 µM and 7.16.
Taken in the same sequence, the figures for `C/C=C/C=C/C(=O)Nc1ccc(OCCN2CCCCC2)cc1` [Compound 18f] were 1.61, 271 ± 4.56 µM, 22.1, 12.3 ± 0.76 µM and 7.06.
Taken in the same sequence, the figures for `C/C=C/C=C/C(=O)Nc1ccc(OCCN2CCCC2)cc1` [Compound 18g] were 1.18, 118 ± 6.79 µM, 8.63, 13.6 ± 1.24 µM and 7.73.
For the compound `CCN(C)C(=O)Oc1cccc([C@H](C)N(C)C)c1` [Rivastigmine, reference compound], the lipophilicity (logP) in data set [1] amounted to 1.68. The pKa in data set [2] stood at 5.93.
